The structures appear in SMILES notation.

As a reminder, the IC50 is the concentration that gives 50% inhibition. What is called Papp A→B is the apparent permeability from the apical to the basolateral side of a cell layer. By efflux ratio is commonly meant a quotient of directional permeabilities that is used to spot active efflux. For orientation: Cmax means the maximum level reached in the sampled fluid or tissue. One may read the bioavailability as dose-corrected exposure relative to a reference, in per cent. Higher therefore signals much systemic uptake.

In series [1] the target is T1, Solute carrier family 2, facilitated glucose transporter member 2 (Homo sapiens, UniProt P11168).
T1 sequence (P11168 whole entry): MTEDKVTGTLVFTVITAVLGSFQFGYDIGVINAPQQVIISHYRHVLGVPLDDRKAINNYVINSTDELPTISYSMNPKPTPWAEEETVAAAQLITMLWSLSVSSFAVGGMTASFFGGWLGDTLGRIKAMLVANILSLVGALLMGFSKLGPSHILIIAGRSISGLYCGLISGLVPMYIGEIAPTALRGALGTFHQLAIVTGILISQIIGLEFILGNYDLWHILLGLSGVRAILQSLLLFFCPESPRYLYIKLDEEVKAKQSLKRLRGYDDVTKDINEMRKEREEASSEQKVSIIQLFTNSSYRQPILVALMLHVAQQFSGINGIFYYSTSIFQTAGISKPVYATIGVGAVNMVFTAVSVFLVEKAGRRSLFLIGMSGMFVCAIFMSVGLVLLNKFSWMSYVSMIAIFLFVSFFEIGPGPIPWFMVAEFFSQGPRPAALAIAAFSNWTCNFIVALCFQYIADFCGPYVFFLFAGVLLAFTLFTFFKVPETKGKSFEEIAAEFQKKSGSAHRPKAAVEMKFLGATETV
The experiment in a line: Inhibition of human GLUT2 expressed in CHO cells assessed as ATP production co-incubated with 30 mM fructose for 16 hrs by CellTiter-Glo assay in presence of oxidative phosphorylation inhibitor rotenone. The series is classed as cell-based.

Series [2] deals with T2, Solute carrier family 2, facilitated glucose transporter member 3 (Homo sapiens, UniProt P11169).
T2 sequence (P11169 whole entry): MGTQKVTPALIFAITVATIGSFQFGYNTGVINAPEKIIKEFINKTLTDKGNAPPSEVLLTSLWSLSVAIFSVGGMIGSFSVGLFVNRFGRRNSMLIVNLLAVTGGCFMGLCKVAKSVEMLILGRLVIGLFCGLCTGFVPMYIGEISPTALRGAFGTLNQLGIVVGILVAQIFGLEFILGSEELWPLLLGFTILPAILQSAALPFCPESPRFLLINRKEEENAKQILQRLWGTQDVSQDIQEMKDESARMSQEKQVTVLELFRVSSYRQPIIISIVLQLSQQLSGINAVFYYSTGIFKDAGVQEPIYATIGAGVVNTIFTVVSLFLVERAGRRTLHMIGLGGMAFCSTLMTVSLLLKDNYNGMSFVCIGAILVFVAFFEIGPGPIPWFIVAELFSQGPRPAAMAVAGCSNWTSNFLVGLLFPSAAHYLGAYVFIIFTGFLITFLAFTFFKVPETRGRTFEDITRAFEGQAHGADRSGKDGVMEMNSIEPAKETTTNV
In words: Inhibition of human GLUT3 expressed in GLUT1 knock-out DLD1 cells assessed as ATP production co-incubated with 300 mM glucose for 16 hrs by CellTiter-Glo assay in presence of oxidative phosphorylation inhibitor rotenone. The format is cell-based, DLD-1. Background: ATP-based viability assays read luminescence as a measure of living cells.

Series [3] deals with T3, Solute carrier family 2, facilitated glucose transporter member 1 (Homo sapiens, UniProt P11166).
T3 sequence (P11166 whole entry): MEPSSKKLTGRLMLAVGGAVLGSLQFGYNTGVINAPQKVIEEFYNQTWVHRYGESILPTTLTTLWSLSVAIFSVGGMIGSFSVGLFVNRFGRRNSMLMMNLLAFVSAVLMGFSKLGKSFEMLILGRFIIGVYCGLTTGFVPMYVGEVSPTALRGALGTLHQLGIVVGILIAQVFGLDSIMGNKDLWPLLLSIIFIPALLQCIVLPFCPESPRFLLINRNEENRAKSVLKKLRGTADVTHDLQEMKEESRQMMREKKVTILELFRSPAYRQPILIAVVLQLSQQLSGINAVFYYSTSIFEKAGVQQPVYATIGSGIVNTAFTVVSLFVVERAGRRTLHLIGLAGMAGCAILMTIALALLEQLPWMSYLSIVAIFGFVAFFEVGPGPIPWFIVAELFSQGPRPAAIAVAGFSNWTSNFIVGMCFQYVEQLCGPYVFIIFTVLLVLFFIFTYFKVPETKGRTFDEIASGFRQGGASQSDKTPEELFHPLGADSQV
The experiment in a line: Inhibition of human GLUT1 expressed in DLD1 cells assessed as ATP production co-incubated with 100 mM glucose for 16 hrs by CellTiter-Glo assay in presence of oxidative phosphorylation inhibitor rotenone. The series is classed as cell-based, DLD-1.

A short description of series [4]: Intrinsic clearance in human liver microsomes. The series is classed as ADME. Conditions: read-out: CLH (converted). A general note: Liver microsomes are a subcellular fraction often used to study metabolism.
A short description of series [5]: Intrinsic clearance in rat hepatocytes. The series is classed as ADME, cell-based, Hepatocyte. Conditions: read-out: CLH (converted).
Series [6] in a line: Apparent permeability from apical to basolateral side in human Caco2 cells at 2 uM after 2 hrs. The format is ADME, cell-based. The following applies: Caco-2.
Series [7] is described as follows: Efflux ratio of apparent permeability from basolateral to apical side over apical to basolateral side in human Caco2 cells. The series is classed as ADME, cell-based. The following applies: Caco-2. On the technique in general: Caco-2 cells form a polarised layer with tight junctions and transporters.
Series [8] can be described thus: Intrinsic clearance in mouse liver microsomes. The format is ADME. The following applies: read-out: CLH (converted).
A short description of series [9]: Intrinsic clearance in human hepatocytes. The series is classed as ADME, cell-based, Hepatocyte. Conditions: read-out: CLH (converted).
A short description of series [10]: Intrinsic clearance in rat liver microsomes. The format is ADME. The following applies: read-out: CLH (converted).
The nature of series [11]: Blood clearance in Wistar rat at 0.3 mg/kg, iv and 5 mg/kg, po. Conditions: whole blood. The format is ADME, organism-based.
Series [12] can be described thus: Terminal half life in Wistar rat at 0.3 mg/kg, iv and 5 mg/kg, po. The following applies: in vivo, read-out: beta t1/2 (converted). The series is classed as ADME, organism-based.
Series [13] can be described thus: Cmax in Wistar rat at 5 mg/kg, po. The format is ADME, organism-based. Details: dose 5 mg/kg, route oral. Conditions: in vivo.
A short description of series [14]: Volume of distribution at steady state in Wistar rat at 0.3 mg/kg, iv and 5 mg/kg, po. The format is ADME, organism-based. The following applies: in vivo, read-out: Vdss.
A short description of series [15]: Oral bioavailability in Wistar rat at 5 mg/kg. Conditions: in vivo. The format is ADME, organism-based.

`COc1ccccc1N1CCN(c2ncnc3c2cnn3-c2ccc(C)cc2)CC1`: the values for the IC50 in [1], in series [2] and in [3] were 10 µM, 3 µM and 1.5 µM, respectively.

On to `COc1ccc(F)cc1N1CCN(c2ncnc3c2cnn3-c2ccccc2)CC1`, for which the values for the IC50 in series [1], in series [2] and in series [3] were above 10 µM, 0.01 µM and 0.001 µM, respectively. Moreover, the CLint scaled was 6.17 mL/min/kg in series [4] and 43.3 mL/min/kg in series [5].

Take `COc1ccccc1N1CCN(c2ncnc3c2cnn3-c2ccccn2)CC1`: the results for the IC50 in series [1], in [2] and in [3] were 8 µM, 0.94 µM and 0.51 µM, respectively.

On to `COc1ccccc1N1CCN(c2ncnc3c2cnn3-c2cc(F)cc(F)c2)CC1`, for which the figures for the IC50 in series [1], in series [2] and in series [3] were above 10 µM, 0.09 µM and 0.008 µM, respectively.

As to `COc1ccccc1N1CCN(c2ncnc3c2cnn3-c2cc(F)ccc2OC)CC1`, the IC50 in [1] is 0.88 µM; in series [2], 0.32 µM; in series [3], 0.03 µM.

For `COc1ccccc1N1CCN(c2ncnc3c2cnn3C2CCCC2)CC1`, in series [6], the Papp A→B at 2 h, 2 µM is 15.3 ×10⁻⁶ cm/s. For the same molecule, the IC50 was determined as 2 µM in [1], 0.12 µM in series [2] and 0.04 µM in [3]. For the same molecule, the results for the CLint scaled in series [4] and in series [5] were 13.8 mL/min/kg and 61.7 mL/min/kg, respectively. Besides, in series [7], the efflux ratio came to 0.33.

Consider `COc1ccccc1N1CCN(c2ncnc3c2cnn3C(C)c2ccccc2)CC1` (stereo unspecified), for which the IC50 is 2.1 µM in series [1], 0.95 µM in series [2] and 0.41 µM in series [3].

Take `COc1ccccc1N1CCN(c2ncnc3c2cnn3-c2ccncc2)CC1`: the IC50 in [1] was determined as 4.4 µM; in series [2], 1.6 µM; in series [3], 1.2 µM.

Consider `COc1ccccc1N1CCN(c2ncnc3c2cnn3-c2ccc(F)cc2)CC1`, for which the IC50 in [1] was above 10 µM; in series [2], 0.046 µM; in series [3] it was 0.017 µM.

`COc1ccccc1N1CCN(c2ncnc3c2cnn3-c2ccccc2)CC1`: in [6], the Papp A→B at 2 h, 2 µM is 5.9 ×10⁻⁶ cm/s. Also, the IC50 in series [1] was above 10 µM; in series [2], 0.25 µM; in series [3] it was 0.025 µM. The CLint scaled in series [4] was 2.33 mL/min/kg; in series [8], 38.3 mL/min/kg; in series [9] it was 14 mL/min/kg; in series [10], 36.7 mL/min/kg; in [5] it was 45 mL/min/kg. Besides, the efflux ratio in [7] was determined as 0.29.

`COc1ccccc1N1CCN(c2ncnc3c2cnn3-c2ccc(C#N)cc2)CC1`: the IC50 in [1] is above 10 µM; in series [2], 0.2 µM; in series [3] it was 0.017 µM.

For `COc1ccccc1N1CCN(c2ncnc3c2cnn3-c2ccccc2F)CC1`, the clearance in series [11] was 20 mL/min/kg. Further, in series [6], the Papp A→B at 2 h, 2 µM is 17.5 ×10⁻⁶ cm/s. In addition, the IC50 in [1] was determined as 1.1 µM; in [2] it was 0.04 µM; in [3], 0.007 µM. In addition, in series [12], the half-life is 2.7 h. Besides, the CLint scaled in [4] is 8.33 mL/min/kg; in [8] it was 28.3 mL/min/kg; in [9], 13.2 mL/min/kg; in series [5] it was 36.7 mL/min/kg. The efflux ratio in [7] stood at 0.42. The highest concentration (Cmax) in series [13] amounted to 1700 nM. In addition, the Vd in series [14] was 1.9 L/kg. This molecule also yielded a bioavailability in series [15] of 67%.

As for `COc1ccc(-n2ncc3c(N4CCN(c5ccccc5OC)CC4)ncnc32)cc1`, the half-maximal inhibitory concentration (IC50) in [1] is 2.6 µM; in [2] it was 0.17 µM; in series [3] it was 0.23 µM.

As to `COc1ccccc1N1CCN(c2ncnc3c2cnn3-c2cccc(F)c2)CC1`, the IC50 in series [1] was above 10 µM; in [2], 0.12 µM; in [3] it was 0.035 µM. Further, the values for the CLint scaled in series [4] and in series [8] were 9.17 mL/min/kg and 31.7 mL/min/kg, respectively.

Consider `COc1ccccc1N1CCN(c2ncnc3c2cnn3-c2cccnc2)CC1`, for which the IC50 was 6 µM in series [1], 1.5 µM in series [2] and 0.75 µM in series [3].

Values taken from ChEMBL document CHEMBL3779893, “Identification of novel GLUT inhibitors” (Bioorg Med Chem Lett, 2016).
